Experimental data reported in patent publication US20250313572A1, “MACROCYCLIC MCL-1 INHIBITORS AND METHODS OF USE” (AbbVie Inc., priority 2017, published 2025).
Read-outs that look alike come from different tables or passages of the source.

Key:
[1] = test system: NCI-H929 human multiple myeloma tumor cell line; assay: NCI-H929 cell viability assay (CellTiter-Glo, 24 hours); type: cell-based; conditions: Homo sapiens, NCI-H929, 24 h, read-out: H929 Viability IC50 (μM, 10% FBS), 10% FBS, 24 hours of compound treatment
GST-MCL-1 = GST-MCL-1 (Homo sapiens, UniProt Q07820); assay: TR-FRET MCL-1 binding assay (competition with probe F-Bak)
Sequence of GST-MCL-1 (Q07820 whole entry): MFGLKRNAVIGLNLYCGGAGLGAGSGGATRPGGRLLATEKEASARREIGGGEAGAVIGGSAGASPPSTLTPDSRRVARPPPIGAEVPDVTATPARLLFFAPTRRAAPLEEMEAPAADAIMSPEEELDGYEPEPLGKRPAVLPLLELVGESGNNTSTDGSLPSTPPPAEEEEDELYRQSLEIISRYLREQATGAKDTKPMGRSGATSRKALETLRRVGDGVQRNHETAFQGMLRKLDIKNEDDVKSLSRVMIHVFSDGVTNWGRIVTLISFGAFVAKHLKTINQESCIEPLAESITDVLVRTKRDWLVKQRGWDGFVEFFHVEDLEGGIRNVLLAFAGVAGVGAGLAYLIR
Protocol: Tb-anti-GST antibody was purchased from Invitrogen (Catalog No. PV4216).
For the assay, an acoustic dispenser was used to prepare dilution series from 10 mM test compounds in 100% DMSO and directly transfer 160 nL into low volume 384-well assay plates. 8 μL of a protein/probe/antibody mix was then added to each well resulting in final concentrations listed below: • Test compound: 11 three-fold dilutions beginning at 25 μM
The samples were then mixed on a shaker for 1 minute and incubated for an additional 2 hours at room temperature. For each assay plate, a probe/antibody and protein/antibody/probe mixture were included as a negative and a positive control, respectively. Fluorescence was measured on the Envision (Perkin Elmer) using a 340/35 nm excitation filter and 520/525 (F-Bak) and 495/510 nm (Tb-labeled anti-his antibody) emission filters. […] The TR-FRET assay can be performed in the presence of varying concentrations of human serum (HS) or fetal bovine serum (FBS). Compounds were tested both without HS and in the presence of 10% HS.

[2] = test system: AMO-1 human multiple myeloma tumor cell line; assay: AMO-1 cell viability assay (CellTiter-Glo, 24 hours); type: cell-based; conditions: Homo sapiens, AMO1, 24 h, read-out: AMO-1 Viability IC50 (μM, 10% FBS), 10% FBS, 24 hours of compound treatment
[3] = MCL-1 Binding Ki (nM, 10% HS), in the presence of 10% HS (human serum)
[4] = without HS, read-out: MCL-1 Binding Ki

| SMILES | IC50 [1] [µM] | Ki (GST-MCL-1; [3]) [nM] | Ki (GST-MCL-1; [4]) [nM] | IC50 [2] [µM] |
| --- | --- | --- | --- | --- |
| COCCOCCOCCOCCOCCOCCOCCOc1ccc(-c2nccc(COc3ccc4cc3C[C@H](C(=O)O)Oc3ncnc5sc(-c6ccc(F)cc6)c(c35)-c3c(C)c(Cl)c(c(Cl)c3C)O[C@H](CN3CCN(C)CC3)CO4)n2)cc1 [Example 54, (7R,16R)-19,23-dichloro-1-(4-fluorophenyl)-10-[(2-{4-[(2,5,8,11,14,17,20-heptaoxadocosan-22-yl)oxy]phenyl}pyrimidin-4-yl)methoxy]-20,22-dimethyl-16-[(4-methylpiperazin-1-yl)methyl]-7,8,15,16-tetrahydro-18,21-etheno-13,9-(metheno)-6,14,17-trioxa-2-thia-3,5-diazacyclononadeca[1,2,3-cd]indene-7-carboxylic Acid] | 0.000771 | 0.139 | 0.025 | 0.000591 |
| Cc1c(Cl)c2c(Cl)c(C)c1-c1c(-c3ccc(F)cc3)sc3ncnc(c13)O[C@@H](C(=O)O)Cc1cc(ccc1OCc1ccnc(-c3ccccc3S(C)(=N)=O)n1)OCC(CN1CCN(C)CC1)O2 (stereo partly drawn) [Example 26, (7R,16R)-19,23-dichloro-1-(4-fluorophenyl)-10-({2-[2-(S-methanesulfonimidoyl)phenyl]pyrimidin-4-yl}methoxy)-20,22-dimethyl-16-[(4-methylpiperazin-1-yl)methyl]-7,8,15,16-tetrahydro-18,21-etheno-13,9-(metheno)-6,14,17-trioxa-2-thia-3,5-diazacyclononadeca[1,2,3-cd]indene-7-carboxylic Acid] | 0.00289 | 0.11 | 0.021 | 0.00112 |
| CO[C@@H]1CO[C@H]2[C@@H]1OC[C@H]2OCCOCCOc1nccc(COc2ccc3cc2C[C@H](C(=O)O)Oc2ncnc4sc(-c5ccc(F)cc5)c(c24)-c2c(C)c(Cl)c(c(Cl)c2C)O[C@H](CN2CCN(C)CC2)CO3)n1 [Example 133, (7R,16R)-19,23-dichloro-1-(4-fluorophenyl)-10-({2-[2-(2-{[(3R,3aR,6R,6aR)-6-methoxyhexahydrofuro[3,2-b]furan-3-yl]oxy}ethoxy)ethoxy]pyrimidin-4-yl}methoxy)-20,22-dimethyl-16-[(4-methylpiperazin-1-yl)methyl]-7,8,15,16-tetrahydro-18,21-etheno-13,9-(metheno)-6,14,17-trioxa-2-thia-3,5-diazacyclononadeca[1,2,3-cd]indene-7-carboxylic Acid] | 0.00879 | 0.168 | 0.044 | 0.00324 |
| Cc1c2ccc(c1Cl)O[C@H](CN1CCN(C)CC1)COc1ccc(OCc3ccnc(-c4ccc(CCC(=O)O)cc4)n3)c(c1)C[C@H](C(=O)O)Oc1ncnc3sc(-c4ccc(F)cc4)c-2c13 (atropisomer, axis not shown) [Example 17, (7R,16R,21S)-10-({2-[4-(2-carboxyethyl)phenyl]pyrimidin-4-yl}methoxy)-19-chloro-1-(4-fluorophenyl)-20-methyl-16-[(4-methylpiperazin-1-yl)methyl]-7,8,15,16-tetrahydro-18,21-etheno-13,9-(metheno)-6,14,17-trioxa-2-thia-3,5-diazacyclononadeca[1,2,3-cd]indene-7-carboxylic Acid] | 0.0298 | 0.246 | 0.015 | 0.0155 |
| CO[C@@H]1CO[C@H]2[C@@H]1OC[C@H]2OCCOCCOc1ccc(-c2nccc(COc3ccc4cc3C[C@H](C(=O)O)Oc3ncnc5sc(-c6ccc(F)cc6)c(c35)-c3c(C)c(Cl)c(c(Cl)c3C)O[C@H](CN3CCN(C)CC3)CO4)n2)cc1 [Example 159, (7R,16R)-19,23-dichloro-1-(4-fluorophenyl)-10-[(2-{4-[2-(2-{[(3R,3aR,6R,6aR)-6-methoxyhexahydrofuro[3,2-b]furan-3-yl]oxy}ethoxy)ethoxy]phenyl}pyrimidin-4-yl)methoxy]-20,22-dimethyl-16-[(4-methylpiperazin-1-yl)methyl]-7,8,15,16-tetrahydro-18,21-etheno-13,9-(metheno)-6,14,17-trioxa-2-thia-3,5-diazacyclononadeca[1,2,3-cd]indene-7-carboxylic Acid] | 0.000379 | 0.087 | 0.008 | 0.000296 |
| Cc1c2ccc(c1Cl)O[C@H](CN1CCN(C)CC1)COc1ccc(OCc3ccnc(-c4ccc(OC[C@H](O)CO)cc4)n3)c(c1)C[C@H](C(=O)O)Oc1ncnc3sc(-c4ccc(F)cc4)c-2c13 (atropisomer, axis not shown) [Example 18, (7R,16R,21S)-19-chloro-10-[(2-{4-[(2R)-2,3-dihydroxypropoxy]phenyl}pyrimidin-4-yl)methoxy]-1-(4-fluorophenyl)-20-methyl-16-[(4-methylpiperazin-1-yl)methyl]-7,8,15,16-tetrahydro-18,21-etheno-13,9-(metheno)-6,14,17-trioxa-2-thia-3,5-diazacyclononadeca[1,2,3-cd]indene-7-carboxylic Acid] | 0.00531 | 0.269 | 0.011 | 0.00295 |
| COCCOCCOCCOCCOC[C@H]1CCCC[C@@H]1c1nccc(COc2ccc3cc2C[C@H](C(=O)O)Oc2ncnc4sc(-c5ccc(F)cc5)c(c24)-c2c(C)c(Cl)c(c(Cl)c2C)O[C@H](CN2CCN(C)CC2)CO3)n1 (relative stereo) [Example 124, (7R,16R)-19,23-dichloro-1-(4-fluorophenyl)-20,22-dimethyl-16-[(4-methylpiperazin-1-yl)methyl]-10-({2-[(1S*,2S*)-2-(2,5,8,11,14-pentaoxapentadecan-1-yl)cyclohexyl]pyrimidin-4-yl}methoxy)-7,8,15,16-tetrahydro-18,21-etheno-13,9-(metheno)-6,14,17-trioxa-2-thia-3,5-diazacyclononadeca[1,2,3-cd]indene-7-carboxylic Acid] | 0.000818 | 0.145 | 0.012 | 0.000355 |
| Cc1c(Cl)c2c(Cl)c(C)c1-c1c(-c3ccc(F)cc3)sc3ncnc(c13)O[C@@H](C(=O)O)Cc1cc(ccc1OCc1ccnc(-c3cccc(CN4CCS(=O)(=O)CC4)c3)n1)OC[C@@H](CN1CCN(C)CC1)O2 [Example 117, (7R,16R)-19,23-dichloro-10-[(2-{3-[(1,1-dioxo-1λ^6-thiomorpholin-4-yl)methyl]phenyl}pyrimidin-4-yl)methoxy]-1-(4-fluorophenyl)-20,22-dimethyl-16-[(4-methylpiperazin-1-yl)methyl]-7,8,15,16-tetrahydro-18,21-etheno-13,9-(metheno)-6,14,17-trioxa-2-thia-3,5-diazacyclononadeca[1,2,3-cd]indene-7-carboxylic Acid] | 0.000364 | 0.219 | 0.025 | 0.000205 |
| COc1ccccc1-c1nccc(COc2ccc3cc2C[C@H](C(=O)O)Oc2ncnc4sc(-c5ccc(F)cc5)c(c24)-c2ccc(c(Cl)c2C)O[C@H](CN2CCN(C[C@H]4O[C@H](OC)[C@@H](OC)[C@@H](OC)[C@@H]4OC)CC2)CO3)n1 [Example 6, methyl 6-(4-{[(7R,16R,21S)-7-carboxy-19-chloro-1-(4-fluorophenyl)-10-{[2-(2-methoxyphenyl)pyrimidin-4-yl]methoxy}-20-methyl-7,8,15,16-tetrahydro-18,21-etheno-13,9-(metheno)-6,14,17-trioxa-2-thia-3,5-diazacyclononadeca[1,2,3-cd]inden-16-yl]methyl}piperazin-1-yl)-6-deoxy-2,3,4-tri-O-methyl-a-D-mannopyranoside] | 0.024 | 0.221 | 0.014 | 0.03 |
